Measurements taken from patent EP1053749A1, “PREVENTIVES AND REMEDIES FOR NEURON DIGENERATION-ASSOCIATED DISEASEAS” (priority 1998, dated 1999).

Legend:
cerebellar granule cells [1] = test: DNA fragmentation after exposure to peroxynitrite; type: cell-based, rat; settings: peroxynitrite-treated cells
acute toxicity (LD50) = settings: rat, in vivo
[2] = unpublished data, contributed to Free Radic. Biol. Med.; cited from earlier work
cerebellar granule cells [3] = test: cell viability by MTT assay after exposure to peroxynitrite; type: cell-based, rat; settings: concentration not given, Figure 6
cerebellar granule cells [4] = test: NO donor-induced apoptosis, morphological studies; type: cell-based, rat; settings: 25 µmol/L; 24-hour exposure to GSNO or SNP (100-250 µmol/L)
cerebellar granule cells [5] = test: cell membrane fluidity by ESR spin labeling after exposure to peroxynitrite; type: cell-based, rat; settings: Figure 8
cerebellar granule cells [6] = test: cell viability by trypan blue exclusion after exposure to NO donors; type: cell-based, rat; settings: exposure to NO donors (100 µmol/L SNP or GSNO), Figure 2
cerebellar granule cells [7] = test: lipid peroxidation (TBA assay) after exposure to NO donors; type: cell-based, rat; settings: 24-hr treatment with GSNO or SNP, Figure 4
cerebellar granule cells [8] = test: peroxynitrite-induced apoptosis, morphological studies, Pharmacological Test 2; type: cell-based, rat; settings: for protection from apoptotic death: 100 µM, 30-min exposure to 10 µM peroxynitrite
cerebellar granule cells [9] = test: MTT assay (mitochondrial activity) after exposure to GSNO; type: cell-based, rat; settings: Figure 3
cerebellar granule cells [10] = test: lipid peroxidation (TBA assay) after exposure to peroxynitrite; type: cell-based, rat
neuronal membrane = settings: oxidative stress-induced alteration; unpublished data, contributed to Free Radic. Biol. Med.; cited from earlier work
cerebellar granule cells [11] = test: peroxynitrite-induced cell death (trypan blue exclusion and MTT assay), Pharmacological Test 1; type: cell-based, rat; settings: 30-min exposure to 5-10 µmol/L peroxynitrite, assessed after 24-hr culture, Figure 5
cerebellar granule cells [12] = test: DNA fragmentation analysis after exposure to NO donors; type: cell-based, rat; settings: pre-treatment of NO-treated cells
cerebellar granule cells [13] = test: cellular ATP content by HPLC after exposure to peroxynitrite; type: cell-based, rat; settings: pretreatment; exposure to peroxynitrite for 30 min, Figure 9

Cc1c(C)c2c(c(C)c1OP(=O)(O)OC1=C(O)[C@@H]([C@@H](O)CO)OC1=O)CCC(C)(CCCC(C)CCCC(C)CCCC(C)C)O2.O=P(O)(O)O (mixture of isomers) [EPC-K1, L-ascorbic acid 2-[3,4-dihydro-2,5,7,8-tetramethyl-2-(4,8,12-trimethyltridecyl)-2H-1-benzopyran-6-yl-hydrogen phosphate] phosphate salt]
DNA fragmentation (ladder pattern) (cerebellar granule cells [1]; 50 µM): effectively prevented DNA from fragmentation | LD50 (acute toxicity (LD50); iv): > 100 mg/kg | LD50 (acute toxicity (LD50); po): > 5000 mg/kg | solubility in water (solubility in water): soluble in water | scavenging of peroxynitrite [2]: effective scavenger of peroxynitrite | cell viability (MTT assay) (cerebellar granule cells [3]): effectively protected the cells from death | protection from apoptotic cell death (cerebellar granule cells [4]): protected the cells from death | cell membrane fluidity (order parameter) (cerebellar granule cells [5]; 50 µM): prevented the change in cell membrane fluidity | cell viability (trypan blue exclusion) (cerebellar granule cells [6]): effectively protected the cells from death | lipid peroxidation (formation of TBARS) (cerebellar granule cells [7]): effectively inhibited lipid peroxidation | protection from apoptotic death (cerebellar granule cells [8]): protected from death | protective action against ONOO^--induced apoptosis (comparison) (cerebellar granule cells [8]; overall comparison in Pharmacological Test 2): more effective than vitamin C or Trolox | protection of ability of cells to reduce MTT (mitochondrial enzymes) (cerebellar granule cells [9]; 8-hr exposure to 100 µmol/L GSNO): exhibited no dear protective effects | further dysfunction of mitochondrial enzymes (MTT) (cerebellar granule cells [9]; after exposure to 100 µmol/L GSNO): prevented mitochondrial enzymes from falling into further dysfunction | formation of TBARS (lipid peroxidation) (cerebellar granule cells [10]; 50 µM, Figure 7): markedly suppressed | neuronal membrane fluidity (neuronal membrane): protects neuronal membrane fluidity from oxidative stress-induced alteration | peroxynitrite induced cell death (cerebellar granule cells [11]): effectively prevented cell death | DNA fragmentation (ladder pattern) (cerebellar granule cells [12]): prevented DNA from fragmentation | cellular ATP content (cerebellar granule cells [13]): suppressed the decrease of ATP

Cc1c(C)c2c(c(C)c1O)CCC(C)(C(=O)O)O2 (stereo not shown) [Trolox, 6-Hydroxy-2,5,7,8-tetramethylchroman-2-carboxylic acid]
DNA fragmentation (ladder pattern) (cerebellar granule cells [1]; 100 µM): exhibited protective effects | cell membrane fluidity (order parameter) (cerebellar granule cells [5]; 100 µM): did not show significant protective effect | protection from apoptotic death (cerebellar granule cells [8]): protected from death | formation of TBARS (lipid peroxidation) (cerebellar granule cells [10]; 100 µM): markedly inhibited the formation of TBARS | cellular ATP content (cerebellar granule cells [13]): suppressed the decrease of ATP

O=C1O[C@H]([C@@H](O)CO)C(O)=C1O [vitamin C]
DNA fragmentation (ladder pattern) (cerebellar granule cells [1]; 100 µM): exhibited protective effects | protection from apoptotic death (cerebellar granule cells [8]): protected from death | formation of TBARS (lipid peroxidation) (cerebellar granule cells [10]; 100 µM): markedly inhibited the formation of TBARS | cellular ATP content (cerebellar granule cells [13]): suppressed the decrease of ATP
